Results on 7 compounds are retold here after article PMC10584170, “Machine learning-based phenotypic imaging to characterise the targetable biology of Plasmodium falciparum male gametocytes for the development of transmission-blocking antimalarials” (PLOS Pathogens, 2023).

In series [1] the test system is P. falciparum male gametocytes. Put plainly: P. falciparum Dual Gamete Formation Assay (PfDGFA), male readout (exflagellation). The format is cell-based, Plasmodium falciparum NF54. The settings on record: for HitlevelM: number of replicates with >50% inhibition in the male readout; for Selectivity Ratio M: HepG2 Tox50 versus male IC50; for IC50: PfDGFA, 24 h incubation with gametocytes before induction, exflagellation readout, read-out: Male IC50. Summed up:
(§1)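 Mature NF54 gametocytes (day 14) were incubated with compound for 24 h at 37°C under 1% O2/3% CO2, then triggered with xanthurenic acid ookinete medium plus Cy3-anti-Pfs25. Exflagellation was imaged by brightfield; after a further 24 h at 28°C, Pfs25-positive female gametes were imaged by fluorescence and counted by automated image analysis.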

The next series has as its system HepG2 cells. In words: HepG2 cytotoxicity counter-screen. The settings on record: cytotoxic activity against HepG2 cells. Background: A counterscreen serves to expose hits that act by an unwanted route or on another target.
Series [2] deals with P. falciparum female gametocytes. Put plainly: P. falciparum Dual Gamete Formation Assay (PfDGFA), female readout (Pfs25-positive female gametes). The format is cell-based, Plasmodium falciparum NF54. The settings on record: for HitlevelF: number of replicates with >50% inhibition in the female readout; for Selectivity ratio F: HepG2 Tox50 versus female IC50; for IC50: PfDGFA, 24 h incubation with gametocytes before induction, female gamete readout, read-out: Female IC50. The gist of the method: as §1

The mark [3] stands for this setting: PfDGFA at 2µM, 24h preincubation with gametocytes, average of replicates.
The mark [4] stands for this setting: PfDGFA at 2µM, 24h preincubation with gametocytes, replicate R1.
Setting [5] is: PfDGFA at 2µM, 24h preincubation with gametocytes, replicate R4.
The mark [6] stands for this setting: 2µM, 24h preincubation with gametocytes, average of replicates.
The mark [7] stands for this setting: 2µM, 24h preincubation with gametocytes, replicate R1.
Where [8] appears, read: 2µM, 24h preincubation with gametocytes, replicate R3.
Setting [9] is: 2µM, 24h preincubation with gametocytes, replicate R4.

Like-named read-outs stand apart in the source and are kept apart here. A value given as a limit tells only on which side of the number the result lay.

In series [1] (2µM, 24h preincubation), `CC(C)(CNC(=O)[C@H]1CCCCN1)c1nc(-c2ccc(Cl)c(O)c2)c(-c2ccncc2)[nH]1.Cl` [TCMDC-141070] came in with a HitlevelM of 1. Further, in series [1], the “Selectivity Ratio M” value is 32.01. Besides, the inhibition (in general, the relative decrease from the control value, in per cent) at 2 µM in series [1] (Plasmodium falciparum, 2µM, 24h preincubation with gametocytes prior to induction of gametogenesis, average of replicates, read-out: Average inhibition male (%)) was 20.5%; in series [1] (Plasmodium falciparum, 2µM, 24h preincubation with gametocytes prior to induction of gametogenesis, replicate R1, read-out: % inhibition male (individual replicates) R1) it was -8.8%; in series [1] (Plasmodium falciparum, 2µM, 24h preincubation with gametocytes prior to induction of gametogenesis, replicate R2, read-out: % inhibition male (individual replicates) R2), -11.5%; in series [1] (Plasmodium falciparum, 2µM, 24h preincubation with gametocytes prior to induction of gametogenesis, replicate R3, read-out: % inhibition male (individual replicates) R3), 48.5%; in series [1] (Plasmodium falciparum, 2µM, 24h preincubation with gametocytes prior to induction of gametogenesis, replicate R4, read-out: % inhibition male (individual replicates) R4), 54%; in series [2] (Plasmodium falciparum, 2µM, 24h preincubation with gametocytes prior to induction of gametogenesis, average of replicates, read-out: Average inhibition female (%)) it was 83.6%. For the same compound, the inhibition at 2 µM in series [2] (Plasmodium falciparum, 2µM, 24h preincubation with gametocytes prior to induction of gametogenesis, replicate R1, read-out: % inhibition female (individual replicates) R1) was determined as 71.8%; in series [2] (Plasmodium falciparum, 2µM, 24h preincubation with gametocytes prior to induction of gametogenesis, replicate R2, read-out: % inhibition female (individual replicates) R2), 79.1%; in series [2] (Plasmodium falciparum, 2µM, 24h preincubation with gametocytes prior to induction of gametogenesis, replicate R3, read-out: % inhibition female (individual replicates) R3), 95.8%; in series [2] (Plasmodium falciparum, 2µM, 24h preincubation with gametocytes prior to induction of gametogenesis, replicate R4, read-out: % inhibition female (individual replicates) R4), 87.7%. In addition, the IC50 (in general, the midpoint of a concentration-inhibition curve) in series [1] (Plasmodium falciparum) is 1630 nM; in series [2] (Plasmodium falciparum), 1020 nM. The compound also returned a Tox50 with HepG2 cells of 52.33 µM. In series [2] (2µM, 24h preincubation), this compound returned a HitlevelF of 4. Moreover, in series [2], the “Selectivity ratio F” value was 51.37.

As to `Cl.NCC1(c2nc(-c3ccc(Cl)c(O)c3)c(-c3ccncc3)[nH]2)CCCCC1` [TCMDC-141154], in series [1], the “Selectivity Ratio M” value was found to be 11.58. The inhibition at 2 µM in series [1] (Plasmodium falciparum, 2µM, 24h preincubation with gametocytes, average of replicates, read-out: Average inhibition male (%)) worked out at 99.7%; in series [1] (Plasmodium falciparum, 2µM, 24h preincubation with gametocytes, replicate R1, read-out: % inhibition male (individual replicates) R1) it was 95.4%; in series [1] (Plasmodium falciparum, 2µM, 24h preincubation with gametocytes, replicate R2, read-out: % inhibition male (individual replicates) R2), 103%; in series [1] (Plasmodium falciparum, 2µM, 24h preincubation with gametocytes, replicate R3, read-out: % inhibition male (individual replicates) R3), 95.7%; in series [1] (Plasmodium falciparum, 2µM, 24h preincubation with gametocytes, replicate R4, read-out: % inhibition male (individual replicates) R4) it was 105%; in series [2] (Plasmodium falciparum, 2µM, 24h preincubation with gametocytes, average of replicates, read-out: Average inhibition female (%)) it was 94.3%. In addition, the inhibition at 2 µM in series [2] (Plasmodium falciparum, 2µM, 24h preincubation with gametocytes, replicate R1, read-out: % inhibition female (individual replicates) R1) is 92.5%; in series [2] (Plasmodium falciparum, 2µM, 24h preincubation with gametocytes, replicate R2, read-out: % inhibition female (individual replicates) R2), 91.3%; in series [2] (Plasmodium falciparum, 2µM, 24h preincubation with gametocytes, replicate R3, read-out: % inhibition female (individual replicates) R3) it was 101%; in series [2] (Plasmodium falciparum, 2µM, 24h preincubation with gametocytes, replicate R4, read-out: % inhibition female (individual replicates) R4), 92.3%. Further, the IC50 in series [1] (Plasmodium falciparum) came out at 850 nM; in series [2] (Plasmodium falciparum), 430 nM. In the series with HepG2 cells, this compound showed a Tox50 of 9.89 µM. Besides, the “Selectivity ratio F” value in series [2] was 23.04.

Take `CNC(=O)c1cnc(Nc2ccc(N3CCN(C)CC3)cc2)nc1Nc1ccccc1OC.O=C(O)C(F)(F)F` [TCMDC-141382]: in series [1], the “Selectivity Ratio M” value was 29.58. Also, the inhibition at 2 µM was 82.8% in series [1] (Plasmodium falciparum, PfDGFA at 2µM, 24h preincubation with gametocytes, average of replicates, read-out: Average inhibition male (%)); 83.2% in series [1] (Plasmodium falciparum, PfDGFA at 2µM, 24h preincubation with gametocytes, replicate R1, read-out: % inhibition male (individual replicates) R1); 85.9% in series [1] (Plasmodium falciparum, PfDGFA at 2µM, 24h preincubation with gametocytes, replicate R2, read-out: % inhibition male (individual replicates) R2); 82.1% in series [1] (Plasmodium falciparum, PfDGFA at 2µM, 24h preincubation with gametocytes, replicate R3, read-out: % inhibition male (individual replicates) R3); 80.2% in series [1] (Plasmodium falciparum, PfDGFA at 2µM, 24h preincubation with gametocytes, replicate R4, read-out: % inhibition male (individual replicates) R4); 0.5% in series [2] (Plasmodium falciparum, PfDGFA at 2µM, 24h preincubation with gametocytes, average of replicates, read-out: Average inhibition female (%)). The inhibition at 2 µM in series [2] (Plasmodium falciparum, PfDGFA at 2µM, 24h preincubation with gametocytes, replicate R1, read-out: % inhibition female (individual replicates) R1) was -10.9%; in series [2] (Plasmodium falciparum, PfDGFA at 2µM, 24h preincubation with gametocytes, replicate R2, read-out: % inhibition female (individual replicates) R2), 1.1%; in series [2] (Plasmodium falciparum, PfDGFA at 2µM, 24h preincubation with gametocytes, replicate R3, read-out: % inhibition female (individual replicates) R3) it was 15.6%; in series [2] (Plasmodium falciparum, PfDGFA at 2µM, 24h preincubation with gametocytes, replicate R4, read-out: % inhibition female (individual replicates) R4) it was -3.9%. For the same compound, the IC50 in series [1] (Plasmodium falciparum) is 1200 nM; in series [2] (Plasmodium falciparum), > 10000 nM. Moreover, the HitlevelM in series [1] (2µM) stood at 4. Moreover, in the series on HepG2 cells, the Tox50 is 35.63 µM. The “Selectivity ratio F” value in series [2] is reported as 3.56. Besides, in series [2] (2µM), the HitlevelF stood at 0.

For the compound `CN(C)CC(O)COc1ccc(Nc2ncc([N+](=O)[O-])c(Nc3ccccc3O)n2)cc1.O=C(O)C(F)(F)F` (centres unmarked) [TCMDC-141399], in series [1], the “Selectivity Ratio M” value amounted to 1.47 and the IC50 was 1830 nM. Moreover, the “Average inhibition male (%)” value in series [1] (setting [3]) is reported as 87.0%. For the same compound, the “% inhibition male (individual replicates) R1” value in series [1] (setting [4]) came to 80.9%. Also, the “% inhibition male (individual replicates) R4” value in series [1] (setting [5]) was found to be 85.8%. In addition, the HitlevelM in series [1] (2µM) was 3. This compound also had a Tox50 in the series with HepG2 cells of 2.69 µM. The “Selectivity ratio F” value in series [2] is recorded as 0.27. Also, the “Average inhibition female (%)” value in series [2] (setting [3]) worked out at 9.6%. Also, the “% inhibition female (individual replicates) R1” value in series [2] (setting [4]) is 0.18%. Besides, the “% inhibition female (individual replicates) R3” value in series [2] (PfDGFA at 2µM, 24h preincubation with gametocytes, replicate R3) was determined as 2.4%. The “% inhibition female (individual replicates) R4” value in series [2] (setting [5]) came out at 9.1%. This compound also displayed a HitlevelF in series [2] (2µM) of 0.

For the compound `Cc1ccc(Cn2nc(Cl)c(N3CCNCC3)cc2=O)cc1NC(=O)Nc1ccc(-c2ccccc2)cc1.O=C(O)C(F)(F)F` [TCMDC-141698], the “Average inhibition male (%)” value in series [1] (setting [6]) turned out to be 96.8%. Further, the “% inhibition male (individual replicates) R1” value in series [1] (setting [7]) came to 94.1%. For the same compound, in series [1] (setting [8]), the “% inhibition male (individual replicates) R3” value worked out at 94.5%. Further, the “% inhibition male (individual replicates) R4” value in series [1] (setting [9]) came to 100.9%. Also, in series [1], the “Selectivity Ratio M” value is reported as 3.32 and the IC50 was found to be 1200 nM. Besides, in the series on HepG2 cells, the Tox50 amounted to 3.97 µM. Besides, in series [2] (setting [6]), the “Average inhibition female (%)” value turned out to be 53.1%. Also, the “% inhibition female (individual replicates) R1” value in series [2] (setting [7]) is given as 36.8%. In addition, the “% inhibition female (individual replicates) R3” value in series [2] (setting [8]) was determined as 40.3%. The “% inhibition female (individual replicates) R4” value in series [2] (setting [9]) was found to be 66.3%. Also, in series [2], the “Selectivity ratio F” value came out at 3.54 and the IC50 was 1120 nM.

Regarding `Cc1c(Cn2nc(Cl)c(N3CCNCC3)cc2=O)cccc1NC(=O)Nc1ccc(-c2ccccc2)cc1.O=C(O)C(F)(F)F` [TCMDC-141699], in series [1] (setting [6]), the “Average inhibition male (%)” value was 91.5%. Besides, the “% inhibition male (individual replicates) R1” value in series [1] (setting [7]) came to 87.4%. Also, the “% inhibition male (individual replicates) R3” value in series [1] (setting [8]) came out at 92.1%. Also, the “% inhibition male (individual replicates) R4” value in series [1] (setting [9]) is 92.9%. Further, in series [1], the “Selectivity Ratio M” value was 2.05 and the IC50 was determined as 580 nM. In addition, the Tox50 in the series on HepG2 cells is on record as 1.2 µM. The “Average inhibition female (%)” value in series [2] (setting [6]) came to 53.7%. The “% inhibition female (individual replicates) R1” value in series [2] (setting [7]) is 31.7%. For the same compound, the “% inhibition female (individual replicates) R3” value in series [2] (setting [8]) is on record as 37.6%. Moreover, the “% inhibition female (individual replicates) R4” value in series [2] (setting [9]) is reported as 62.1%. In addition, in series [2], the “Selectivity ratio F” value is 2.15 and the IC50 was 560 nM.

As to `Cl.O=S(=O)(Nc1cc2c(cc1OCCCN1CCCCC1)CCNCC2)c1ccc(-c2ccc(Cl)cc2)cc1` [TCMDC-141753], the “Average inhibition male (%)” value in series [1] (setting [6]) is 98.2%. Besides, in series [1] (setting [7]), the “% inhibition male (individual replicates) R1” value came to 97.5%. Moreover, the “% inhibition male (individual replicates) R3” value in series [1] (setting [8]) is listed as 95.7%. For the same compound, in series [1] (setting [9]), the “% inhibition male (individual replicates) R4” value worked out at 101.6%. For the same compound, in series [1], the “Selectivity Ratio M” value stood at 5.89 and the IC50 worked out at 1220 nM. This compound also displayed a Tox50 in the series with HepG2 cells of 7.17 µM. The “Average inhibition female (%)” value in series [2] (setting [6]) is 56.2%. Moreover, the “% inhibition female (individual replicates) R1” value in series [2] (setting [7]) was 37.1%. Besides, in series [2] (setting [8]), the “% inhibition female (individual replicates) R3” value is reported as 44.2%. Moreover, in series [2] (setting [9]), the “% inhibition female (individual replicates) R4” value came to 65.5%. In series [2], the “Selectivity ratio F” value amounted to 1.62 and the IC50 was 4420 nM.
